For one assay, the system named is M-SPOTIT2. Type of assay: cell-based. To be noted: pH 11.
A further assay addresses T1, K-SPOTIT1.0 (Homo sapiens, UniProt P41145).
T1 construct: expressed in transfected cells; host or cells: HEK293T (lentiviral infection)
Type of assay: cell-based.

In another assay the target is MOR (Homo sapiens, UniProt P35372). To be noted: previous studies; cited from earlier work.
Assay [1] has as its target kappa-opioid receptor (KOR) as in K-SPOTIT1.0 (Homo sapiens (Human)) (UniProt P41145). Briefly: cell-based or functional assay.

T1 sequence (P41145 with tags, fused parts or gaps): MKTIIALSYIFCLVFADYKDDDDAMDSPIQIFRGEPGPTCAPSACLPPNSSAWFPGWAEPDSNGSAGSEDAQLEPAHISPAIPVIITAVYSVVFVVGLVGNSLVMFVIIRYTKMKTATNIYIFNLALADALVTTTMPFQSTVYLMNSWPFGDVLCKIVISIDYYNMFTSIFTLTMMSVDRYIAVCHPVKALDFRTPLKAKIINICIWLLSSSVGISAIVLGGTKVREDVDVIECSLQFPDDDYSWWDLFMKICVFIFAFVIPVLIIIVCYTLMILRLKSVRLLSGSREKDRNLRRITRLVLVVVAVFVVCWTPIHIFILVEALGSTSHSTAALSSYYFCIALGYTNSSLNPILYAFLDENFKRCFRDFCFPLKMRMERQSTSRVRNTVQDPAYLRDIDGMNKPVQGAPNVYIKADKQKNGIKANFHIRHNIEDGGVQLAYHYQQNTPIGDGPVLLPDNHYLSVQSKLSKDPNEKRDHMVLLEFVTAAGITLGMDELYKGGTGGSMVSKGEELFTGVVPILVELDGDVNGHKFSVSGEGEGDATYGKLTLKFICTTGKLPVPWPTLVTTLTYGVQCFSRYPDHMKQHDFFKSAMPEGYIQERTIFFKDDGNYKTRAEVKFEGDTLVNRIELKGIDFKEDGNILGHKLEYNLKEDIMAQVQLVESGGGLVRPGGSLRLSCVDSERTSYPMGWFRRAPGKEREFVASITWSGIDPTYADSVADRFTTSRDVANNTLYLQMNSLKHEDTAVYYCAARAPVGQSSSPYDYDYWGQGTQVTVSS
MOR, sequence (P35372 whole entry): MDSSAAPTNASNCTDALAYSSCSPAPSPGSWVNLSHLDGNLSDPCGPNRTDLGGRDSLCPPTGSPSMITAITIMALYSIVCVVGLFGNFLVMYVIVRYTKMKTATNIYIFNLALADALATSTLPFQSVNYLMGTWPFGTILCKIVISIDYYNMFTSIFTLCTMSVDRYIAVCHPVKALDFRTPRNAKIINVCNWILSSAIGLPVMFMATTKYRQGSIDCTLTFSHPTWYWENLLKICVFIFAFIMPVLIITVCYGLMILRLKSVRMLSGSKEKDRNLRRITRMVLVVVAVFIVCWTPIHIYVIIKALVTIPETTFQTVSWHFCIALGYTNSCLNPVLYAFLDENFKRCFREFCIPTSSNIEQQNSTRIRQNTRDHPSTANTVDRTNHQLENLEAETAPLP

Regarding `COc1ccc2c3c1O[C@H]1C(=O)CC[C@@]4(O)[C@@H](C2)N(C)CC[C@]314` [oxycodone], in the assay with M-SPOTIT2, the SNR entry is “highest SNR”.

For the molecule `COC(=O)[C@@H]1C[C@H](OC(C)=O)C(=O)[C@H]2[C@@]1(C)CC[C@H]1C(=O)O[C@H](c3ccoc3)C[C@]21C` [Sal A, Salvinorin A], in the assay on M-SPOTIT2, the SNR entry is given as “much lower SNR”. For the molecule `Oc1ccc2c3c1O[C@H]1c4[nH]c5c(c4C[C@@]4(O)[C@@H](C2)N(CC2CC2)CC[C@]314)C[C@@]1(O)[C@H]2Cc3ccc(O)c4c3[C@@]1(CCN2CC1CC1)[C@H]5O4` [Nor-BNI, nor-binaltorphimine], at K-SPOTIT1.0, the “fluorescence before and after addition of KOR antagonist post fluorophore maturation” value was “Comparable fluorescence”; the “fluorescence increase when antagonist added after initial 30-second agonist stimulation, vs Nor-BNI only cells” value is listed as “No significant fluorescence increase”. Consider `O=C(Cc1ccc(Cl)c(Cl)c1)N1CCCCC1CN1CCCC1` (stereo not drawn) [BRL52537], for which, in the assay on M-SPOTIT2, the SNR result was “much lower SNR”. `CN(C)C(=O)C(CCN1CCC(O)(c2ccc(Cl)cc2)CC1)(c1ccccc1)c1ccccc1` [loperamide]: the SNR result with M-SPOTIT2 is “highest SNR”.

In the case of `CC(C)C[C@@H](NC(=O)[C@H](Cc1ccccc1)NC(=O)CNC(=O)[C@@H](C)NC(=O)[C@@H](N)Cc1ccc(O)cc1)C(=O)O` [DADLE], at MOR, the “affinity for MOR” value was “weak affinity”. Take `CN1CC[C@]23c4c5ccc(O)c4O[C@H]2[C@@H](O)C=C[C@H]3[C@H]1C5` [morphine]: the SNR result in the assay with M-SPOTIT2 is listed as “highest SNR”. The same measure, in the same setting: in the case of `C=CCN1CC[C@]23c4c5ccc(O)c4O[C@H]2C(=O)CC[C@@]3(O)[C@H]1C5` [naloxone] it was “much lower SNR”.

B1: Gαi protein mimic nanobody 39 (Nb39) (VHH)
VHH: QVQLVESGGGLVRPGGSLRLSCVDSERTSYPMGWFRRAPGKEREFVASITWSGIDPTYADSVADRFTTSRDVANNTLYLQMNSLKHEDTAVYYCAARAPVGQSSSPYDYDYWGQGTQVTVSS
As to B1, in assay [1], the cpGFP fluorescence of K-SPOTIT1.0 after a 30-second pulse of Sal A, then 24 hours of incubation was determined as 4.2 fold; the cpGFP fluorescence of K-SPOTIT1.0 after longer Sal A incubation amounted to 12 fold; the cpGFP fluorescence of K-SPOTIT1.0 in HEK293T cells, 24 hours with 10 µM Salvinorin A against no Sal A came to 10.9 fold.
